Measured values as given in patent US6525001B1, “Substituted pyrimidine and pyridine herbicides” (Mid-American Commercialization Corporation, priority 1997, dated 2003).

Experiments:
Format in all cases: in vivo
Design in all cases: key: 0 is no effect; 10 is complete control
[1] = tested on: wheat (Triticum aestivum); test: Test B pre-/postemergence
In short: (§1)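 Response scores run from 0, meaning no effect, to 10, meaning complete control, assigned by eye relative to controls twelve to sixteen days after spraying. Treatment was both preemergence on planted seed and postemergence on plants at the 1- to 4-leaf stage.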

[2] = tested on: sugar beet (Beta vulgaris); test: Test B pre-/postemergence
In short: as §1

[3] = tested on: pigweed (Amaranthus retroflexus); test: Test B pre-/postemergence
In short: as §1

[4] = tested on: giant foxtail (Setaria faberii); test: Test B pre-/postemergence
In short: as §1

[5] = tested on: velvetleaf (Abutilon theophrasti); test: Test B pre-/postemergence
In short: as §1

[6] = tested on: corn (Zea mays); test: Test B pre-/postemergence
In short: as §1

[7] = tested on: rape (Brassica napus); test: Test B pre-/postemergence
In short: as §1

[8] = tested on: broadleaf signalgrass (Brachiaria decumbens); test: Test B pre-/postemergence
In short: as §1

[9] = tested on: bedstraw (Galium aparine); test: Test B pre-/postemergence
In short: as §1

[10] = tested on: momingglory (Ipomoea hederacea); test: Test B pre-/postemergence
In short: as §1

[11] = tested on: cocklebur (Xanthium strumarium); test: Test B pre-/postemergence
In short: as §1

[12] = tested on: duck salad (Heteranthera limosa); test: Test B flood test
In short: (§2)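 Each value is a visual injury score relative to controls, with 10 meaning complete control and 0 no effect. Evaluation took place twelve to sixteen days after the 2-leaf-stage plants were treated and kept in the greenhouse.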

[13] = tested on: smallflower flatsedge (Cyperus difformis); test: Test B flood test
In short: as §2

[14] = tested on: bamyardgrass (Echinochloa crus-galli); test: Test B flood test
In short: as §2

[15] = tested on: rice (Oryza sativa); test: Test B flood test
In short: as §2

[16] = Rate 62 g/ha, Postemergence (flood test)
[17] = Rate 125 g/ha, Postemergence, flood test
[18] = Rate 250 g/ha, Postemergence (flood test species)
[19] = Rate 500 g/ha, Postemergence (flood test species)

Cc1cnc(-c2ccc(C(F)(F)F)cc2)nc1Cn1cc(I)cn1 [Compound 12]
Plant response rating, Wheat ([1]; Rate 62 g/ha, Postemergence): 3
Wheat plant response rating ([1]; Rate 62 g/ha, Preemergence): 0
Plant response rating, Wheat ([1]; Rate 125 g/ha, Postemergence): 3
Wheat plant response rating ([1]; Rate 125 g/ha, Preemergence): 0
Plant response rating, Wheat ([1]; Rate 250 g/ha, Postemergence): 3
Plant response rating, Wheat ([1]; Rate 250 g/ha, Preemergence): 0
Plant response rating, Wheat ([1]; Rate 500 g/ha, Postemergence): 4
Plant response rating, Wheat ([1]; Rate 500 g/ha, Preemergence): 0
Plant response rating, Sugarbeets ([2]; Rate 62 g/ha, Postemergence): 7
Sugarbeets plant response rating ([2]; Rate 62 g/ha, Preemergence): 6
Plant response rating, Sugarbeets ([2]; Rate 125 g/ha, Postemergence): 8
Sugarbeets plant response rating ([2]; Rate 125 g/ha, Preemergence): 8
Plant response rating, Sugarbeets ([2]; Rate 250 g/ha, Postemergence): 8
Plant response rating, Sugarbeets ([2]; Rate 250 g/ha, Preemergence): 10
Plant response rating, Sugarbeets ([2]; Rate 500 g/ha, Postemergence): 9
Plant response rating, Sugarbeets ([2]; Rate 500 g/ha, Preemergence): 10
Plant response rating, Redroot pigweed ([3]; Rate 62 g/ha, Postemergence): 9
Redroot pigweed plant response rating ([3]; Rate 62 g/ha, Preemergence): 7
Plant response rating, Redroot pigweed ([3]; Rate 125 g/ha, Postemergence): 9
Redroot pigweed plant response rating ([3]; Rate 125 g/ha, Preemergence): 9
Plant response rating, Redroot pigweed ([3]; Rate 250 g/ha, Postemergence): 9
Plant response rating, Redroot pigweed ([3]; Rate 250 g/ha, Preemergence): 9
Plant response rating, Redroot pigweed ([3]; Rate 500 g/ha, Postemergence): 9
Plant response rating, Redroot pigweed ([3]; Rate 500 g/ha, Preemergence): 9
Plant response rating, Giant foxtail ([4]; Rate 62 g/ha, Postemergence): 2
Giant foxtail plant response rating ([4]; Rate 62 g/ha, Preemergence): 5
Plant response rating, Giant foxtail ([4]; Rate 125 g/ha, Postemergence): 3
Giant foxtail plant response rating ([4]; Rate 125 g/ha, Preemergence): 7
Plant response rating, Giant foxtail ([4]; Rate 250 g/ha, Postemergence): 3
Plant response rating, Giant foxtail ([4]; Rate 250 g/ha, Preemergence): 9
Plant response rating, Giant foxtail ([4]; Rate 500 g/ha, Postemergence): 4
Plant response rating, Giant foxtail ([4]; Rate 500 g/ha, Preemergence): 9
Plant response rating, Velvetleaf ([5]; Rate 62 g/ha, Postemergence): 7
Velvetleaf plant response rating ([5]; Rate 62 g/ha, Preemergence): 3
Plant response rating, Velvetleaf ([5]; Rate 125 g/ha, Postemergence): 7
Velvetleaf plant response rating ([5]; Rate 125 g/ha, Preemergence): 4
Plant response rating, Velvetleaf ([5]; Rate 250 g/ha, Postemergence): 8
Plant response rating, Velvetleaf ([5]; Rate 250 g/ha, Preemergence): 4
Plant response rating, Velvetleaf ([5]; Rate 500 g/ha, Postemergence): 8
Plant response rating, Velvetleaf ([5]; Rate 500 g/ha, Preemergence): 4
Plant response rating, Corn ([6]; Rate 62 g/ha, Postemergence): 2
Corn plant response rating ([6]; Rate 62 g/ha, Preemergence): 0
Plant response rating, Corn ([6]; Rate 125 g/ha, Postemergence): 2
Corn plant response rating ([6]; Rate 125 g/ha, Preemergence): 0
Plant response rating, Corn ([6]; Rate 250 g/ha, Postemergence): 3
Plant response rating, Corn ([6]; Rate 250 g/ha, Preemergence): 0
Plant response rating, Corn ([6]; Rate 500 g/ha, Postemergence): 3
Plant response rating, Corn ([6]; Rate 500 g/ha, Preemergence): 2
Plant response rating, Rape ([7]; Rate 62 g/ha, Postemergence): 7
Rape plant response rating ([7]; Rate 62 g/ha, Preemergence): 0
Plant response rating, Rape ([7]; Rate 125 g/ha, Postemergence): 9
Rape plant response rating ([7]; Rate 125 g/ha, Preemergence): 5
Plant response rating, Rape ([7]; Rate 250 g/ha, Postemergence): 9
Plant response rating, Rape ([7]; Rate 250 g/ha, Preemergence): 6
Plant response rating, Rape ([7]; Rate 500 g/ha, Postemergence): 9
Plant response rating, Rape ([7]; Rate 500 g/ha, Preemergence): 6
Plant response rating, B. signalgrass ([8]; Rate 62 g/ha, Postemergence): 4
B. signalgrass plant response rating ([8]; Rate 62 g/ha, Preemergence): 3
Plant response rating, B. signalgrass ([8]; Rate 125 g/ha, Postemergence): 5
B. signalgrass plant response rating ([8]; Rate 125 g/ha, Preemergence): 8
Plant response rating, B. signalgrass ([8]; Rate 250 g/ha, Postemergence): 7
Plant response rating, B. signalgrass ([8]; Rate 250 g/ha, Preemergence): 8
Plant response rating, B. signalgrass ([8]; Rate 500 g/ha, Postemergence): 7
Plant response rating, B. signalgrass ([8]; Rate 500 g/ha, Preemergence): 9
Plant response rating, Bedstraw ([9]; Rate 62 g/ha, Postemergence): 7
Bedstraw plant response rating ([9]; Rate 62 g/ha, Preemergence): 2
Plant response rating, Bedstraw ([9]; Rate 125 g/ha, Postemergence): 9
Bedstraw plant response rating ([9]; Rate 125 g/ha, Preemergence): 4
Plant response rating, Bedstraw ([9]; Rate 250 g/ha, Postemergence): 10
Plant response rating, Bedstraw ([9]; Rate 250 g/ha, Preemergence): 4
Plant response rating, Bedstraw ([9]; Rate 500 g/ha, Postemergence): 10
Plant response rating, Bedstraw ([9]; Rate 500 g/ha, Preemergence): 8
Plant response rating, Morningglory ([10]; Rate 62 g/ha, Postemergence): 9
Morningglory plant response rating ([10]; Rate 62 g/ha, Preemergence): 4
Plant response rating, Morningglory ([10]; Rate 125 g/ha, Postemergence): 9
Morningglory plant response rating ([10]; Rate 125 g/ha, Preemergence): 6
Plant response rating, Morningglory ([10]; Rate 250 g/ha, Postemergence): 9
Plant response rating, Morningglory ([10]; Rate 250 g/ha, Preemergence): 10
Plant response rating, Morningglory ([10]; Rate 500 g/ha, Postemergence): 9
Plant response rating, Morningglory ([10]; Rate 500 g/ha, Preemergence): 10
Cocklebur plant response rating ([11]; Rate 62 g/ha, Preemergence): 0
Plant response rating, Cocklebur ([11]; Rate 125 g/ha, Postemergence): 8
Plant response rating, Cocklebur ([11]; Rate 250 g/ha, Postemergence): 8
Plant response rating, Cocklebur ([11]; Rate 250 g/ha, Preemergence): 2
Plant response rating, Cocklebur ([11]; Rate 500 g/ha, Postemergence): 8
Plant response rating, Cocklebur ([11]; Rate 500 g/ha, Preemergence): 3
Plant response rating, Ducksalad [12, 16]: 0
Plant response rating, Ducksalad [12, 17]: 1
Plant response rating, Ducksalad [12, 18]: 1
Plant response rating, Ducksalad [12, 19]: 2
Plant response rating, S. Flatsedge [13, 16]: 4
Plant response rating, S. Flatsedge [13, 17]: 6
Plant response rating, S. Flatsedge [13, 18]: 8
Plant response rating, S. Flatsedge [13, 19]: 8
Plant response rating, Barnyardgrass [14, 16]: 2
Plant response rating, Barnyardgrass [14, 17]: 2
Plant response rating, Barnyardgrass [14, 18]: 3
Plant response rating, Barnyardgrass [14, 19]: 3
Plant response rating, Rice [15, 16]: 1
Plant response rating, Rice [15, 17]: 2
Plant response rating, Rice [15, 18]: 3
Plant response rating, Rice [15, 19]: 3
